Results reported in the supplement of paper PMC13380429.

Columns and labels:
Details in all cases: 72 h
Vero E6 [1] = assay: cell viability relative to DMSO; higher = less toxic
U2OS [2] = assay: as above
Calu-3 [3] = assay: as above
Caco-2 [4] = assay: as above
HepG2 [5] = assay: as above
Vero E6 [6] = assay: relative viability EC50 (midpoint between 100% and the lowest measured viability); higher = less toxic
U2OS [7] = assay: as above
Calu-3 [8] = assay: as above
Caco-2 [9] = assay: as above
HepG2 [10] = assay: as above
Vero E6 [11] = assay: drug sensitivity score (DSS) for viability; higher = more toxic; extreme values may be limits of the assay
U2OS [12] = assay: as above
Calu-3 [13] = assay: as above
Caco-2 [14] = assay: as above
HepG2 [15] = assay: as above

Row | Structure (SMILES) | cell viability (Vero E6 [1]; 1 nM) [%] | cell viability (Vero E6 [1]; 10 nM) [%] | cell viability (Vero E6 [1]; 100 nM) [%] | cell viability (Vero E6 [1]; 1000 nM) [%] | cell viability (Vero E6 [1]; 10000 nM) [%] | cell viability (U2OS [2]; 1 nM) [%] | cell viability (U2OS [2]; 10 nM) [%] | cell viability (U2OS [2]; 100 nM) [%] | cell viability (U2OS [2]; 1000 nM) [%] | cell viability (U2OS [2]; 10000 nM) [%] | cell viability (Calu-3 [3]; 1 nM) [%] | cell viability (Calu-3 [3]; 10 nM) [%] | cell viability (Calu-3 [3]; 100 nM) [%] | cell viability (Calu-3 [3]; 1000 nM) [%] | cell viability (Calu-3 [3]; 10000 nM) [%] | cell viability (Caco-2 [4]; 1 nM) [%] | cell viability (Caco-2 [4]; 10 nM) [%] | cell viability (Caco-2 [4]; 100 nM) [%] | cell viability (Caco-2 [4]; 1000 nM) [%] | cell viability (Caco-2 [4]; 10000 nM) [%] | cell viability (HepG2 [5]; 1 nM) [%] | cell viability (HepG2 [5]; 10 nM) [%] | cell viability (HepG2 [5]; 100 nM) [%] | cell viability (HepG2 [5]; 1000 nM) [%] | cell viability (HepG2 [5]; 10000 nM) [%] | relative viability EC50 (Vero E6 [6]) [µM] | relative viability EC50 (U2OS [7]) [µM] | relative viability EC50 (Calu-3 [8]) [µM] | relative viability EC50 (Caco-2 [9]) [µM] | relative viability EC50 (HepG2 [10]) [µM] | drug sensitivity score (Vero E6 [11]) | drug sensitivity score (U2OS [12]) | drug sensitivity score (Calu-3 [13]) | drug sensitivity score (Caco-2 [14]) | drug sensitivity score (HepG2 [15])
1 | Cn1c(=O)c2c(ncn2CC(=O)O)n(C)c1=O [acefylline] | 104 | 105 | 107 | 105 | 86.5 | 98.7 | 97 | 96.8 | 95.5 | 97.8 | 104 | 101 | 114 | 93.8 | 102 | 102 | 98 | 114 | 110 | 105 | 93 | 98.8 | 102 | 95.1 | 108 | > 10 | > 10 | > 10 | > 10 | > 10 | 0.1 | 0 | 0 | 0 | 0
2 | CC(=O)N[C@@H](CCC(N)=O)C(=O)O [aceglutamide] | 98.3 | 104 | 99.8 | 99.9 | 83.7 | 106 | 103 | 99.2 | 98.8 | 98.5 | 101 | 89.8 | 101 | 110 | 103 | 95.5 | 103 | 84.5 | 82.4 | 83 | 90.7 | 89.7 | 104 | 92.5 | 86.4 | > 10 | > 10 | > 10 | > 10 | > 10 | 0.3 | 0 | 0 | 3.5 | 0
3 | CC(=O)NO [acetohydroxamic-acid] | 97.6 | 97.2 | 102 | 101 | 97.6 | 106 | 102 | 97.7 | 98.7 | 99.8 | 104 | 98.8 | 112 | 92.6 | 96.9 | 96.3 | 97.6 | 94.9 | 95.5 | 112 | 99.6 | 101 | 95.9 | 96.2 | 97.3 | > 10 | > 10 | > 10 | > 10 | > 10 | 0 | 0 | 0 | 0 | 0
4 | Cc1cnc(C(=O)O)c[n+]1[O-] [acipimox] | 98.6 | 103 | 102 | 95.7 | 101 | 98.6 | 101 | 101 | 98.5 | 97 | 107 | 102 | 108 | 94.7 | 97.1 | 94.3 | 100 | 95.4 | 93.4 | 87.2 | 87.2 | 101 | 96.6 | 89.5 | 92.3 | > 10 | > 10 | > 10 | > 10 | > 10 | 0 | 0 | 0 | 0 | 0
5 | CN(C)C/C=C/C(=O)Nc1cc2c(Nc3ccc(F)c(Cl)c3)ncnc2cc1O[C@H]1CCOC1 [afatinib] | 101 | 93.7 | 66 | 51.7 | 3.8 | 95.8 | 100 | 93.2 | 91.1 | 13.6 | 88.7 | 57.8 | 32.1 | 28.8 | 9.1 | 109 | 90.4 | 83 | 73.4 | 46.1 | 117 | 96.1 | 104 | 93.7 | 27.6 | 0.465 | 2.32 | 0.0181 | 0.496 | 2.45 | 14.2 | 6.2 | 27.9 | 7.2 | 5
6 | Cc1ccccc1-n1c(CF)nc2ccc(N)cc2c1=O [afloqualone] | 105 | 98.2 | 100 | 102 | 92.4 | 98.3 | 97.9 | 102 | 98.6 | 102 | 98.1 | 96.8 | 101 | 108 | 109 | 98 | 102 | 104 | 101 | 110 | 100 | 94 | 100 | 83.3 | 93.7 | > 10 | > 10 | > 10 | > 10 | > 10 | 0 | 0 | 0 | 0 | 0
7 | CC(=O)OCC(=O)[C@H]1CC[C@H]2[C@@H]3CC[C@H]4C[C@H](O)CC[C@]4(C)[C@H]3C(=O)C[C@]12C [alfadolone-acetate] | 106 | 104 | 98.3 | 104 | 97.3 | 105 | 97.7 | 98.7 | 103 | 100 | 99.9 | 101 | 99.8 | 111 | 91.3 | 99.9 | 102 | 102 | 101 | 100 | 98.7 | 101 | 109 | 104 | 102 | > 10 | > 10 | > 10 | > 10 | > 10 | 0 | 0 | 0 | 0 | 0
